# According to paper PMC10387993, “New pyrimidine-N-β-D-glucosides: synthesis, biological evaluation, and molecular docking investigations” (Turkish Journal of Chemistry, 2023):
# Where two headings read alike, the source gives them in different places.
# Tests used:
# Assay type in all cases: cell-based
# [1] = LDH cytotoxic activity assay, C6; details: rat, C6 glioma cells; for cytotoxicity at 24 h, 25 μg/mL: C6, 25 μg/mL; for cytotoxicity at 24 h, 50 μg/mL: C6, 50 μg/mL; for cytotoxicity at 24 h, 75 μg/mL: C6, 75 μg/mL; for cytotoxicity at 24 h, 100 μg/mL: C6, 100 μg/mL
# Method: (§1) The cell lines were cultured in a cell medium (Dulbecco’s modified eagle’s or RPMI 1640) enriched with 10% (v/v) fetal bovine serum and 2% (v/v) Penicillin-Streptomycin (10,000 U/mL). First, old medium was removed out of the flask when the cells reached approximately 80% confluence. Next, cells were taken from the flasks surface using trypsin-EDTA solution and then subjected to centrifugation. Following, the cell pellet was suspended with fresh media and was inoculated into wells.
# Approximately 5 × 10^3 cells in 100 μL were placed into 96-well plates as triplicates and treated with 25, 50, 75, and 100 μg/mL concentrations of test compounds at 37 °C with 5% CO2 for 24 h. LDH activity was obtained by determining absorbance at 492–630 nm using a microplate reader.
# [2] = tested on: S. aureus MSSA ATCC 29213; assay: Microdilution MIC assay; details: S. aureus MSSA ATCC 29213, 24 h at 35 °C
# Method: (§2) MIC values of the compounds against bacterial strains were determined on the basis of a microwell dilution method. […] […]. Growth of microorganisms was determined visually after incubation for 24 h at 35 °C. The lowest concentration at which there was no visible growth (turbidity) was taken as the MIC.
# E. faecalis ATCC 29212 = assay: Microdilution MIC assay; details: Enterococcus faecalis, ATCC29212, 24 h, E. faecalis ATCC 29212, 24 h at 35 °C; read-out: MIC
# Method: as §2
# S. mutans ATCC 35668 = assay: Microdilution MIC assay; details: S. mutans ATCC 35668, 24 h at 35 °C
# Method: as §2
# [3] = tested on: S. aureus MRSA ATCC 46300; assay: Microdilution MIC assay; details: Staphylococcus aureus; S. aureus MRSA ATCC 46300, 24 h at 35 °C; read-out: MIC
# Method: as §2
# [4] = tested on: P. aeruginosa AGME ATCC 27853; assay: Microdilution MIC assay; details: Pseudomonas aeruginosa, ATCC27853; P. aeruginosa AGME ATCC 27853, 24 h at 35 °C
# Method: as §2
# E. coli ATCC 25922 = assay: Microdilution MIC assay; details: Escherichia coli, ATCC25922; E. coli ATCC 25922, 24 h at 35 °C
# Method: as §2
# [5] = tested on: E. faecalis VRE ATCC 19433; assay: Microdilution MIC assay; details: Enterococcus faecalis; E. faecalis VRE ATCC 19433, 24 h at 35 °C
# Method: as §2
# [6] = tested on: A. actinomycetemcomitans ATCC 33384; assay: Microdilution MIC assay; details: Aggregatibacter actinomycetemcomitans, ATCC33384; A. actinomycetemcomitans ATCC 33384, 24 h at 35 °C
# Method: as §2
# S. gordonii NCTC 7870 = assay: Microdilution MIC assay; details: Streptococcus gordonii, NCTC7870; S. gordonii NCTC 7870, 24 h at 35 °C
# Method: as §2
# E. coli ESBL ATCC 35218 = assay: Microdilution MIC assay; details: Escherichia coli, ATCC35218; E. coli ESBL ATCC 35218, 24 h at 35 °C
# Method: as §2
# HT29 = assay: cells; details: Homo sapiens; for LC50 (concentration giving 50% net cell loss relative to time zero): HT-29, read-out: LC50; for GI50 / IC50 / IC (total growth inhibition): HT-29, HT29, MTT; for IC50: read-out: IC50; for IC (total growth inhibition): read-out: TGI
# Method: as §1
# (§3) A cell suspension containing approximately 1 × 10^4 cells in 100 μL was seeded into the wells of 96-well culture plates. […]. The final volume of the wells was set to 200 μL by medium. Cell proliferation assay was evaluated by MTT (yellow tetrazolium MTT (3-(4,5-dimethylthiazolyl-2)-2,5-diphenyltetrazolium bromide) methods. Briefly, an MTT stock solution (5 mg of MTT/mL of distilled water) was filtered and kept at −20 °C until use. The cells were exposed to an MTT reagent (consisting of one parts of MTT stock solutions and nine parts of fresh RPMI 1640 without phenol red) for 4 h to form MTT formazan dye followed by the dye dissolved in DMSO with Sorenson’s buffer for 30 min at room temperature and then the plate was measured at 560 nm, with 690 nm as a reference interval, using a microplate reader. Each experiment was repeated at least three times for each cell line.
# (§4) IC50 value is a concentration that inhibits half of the cells in vitro. The half maximal inhibitory concentration (IC50) of the test and control compounds was calculated using XLfit5 or excel spreadsheet and represent in μM at 95% confidence intervals. The proliferation assay results were expressed as the percent inhibition according to the following formula: % Inhibition = [1 - (Absorbance of Treatments /Absorbance of DMSO) × 100]. Three dose response parameters (GI50, TGI, LC50) were calculated according to the following formulas using the absorbance measurements of time zero (Tz), control growth (C), and test growth in the presence of drug (Ti). Growth inhibition of 50% (GI50) was calculated from [(Ti-Tz)/(C-Tz)] × 100 = 50, which is the drug concentration resulting in a 50% reduction in the net growth increase in control cells during the drug incubation. The drug concentration resulting in total growth inhibition (TGI) was calculated from Ti = Tz. The LC50 indicating a net loss of cells following treatment was calculated from [(Ti-Tz)/Tz] × 100 = −50.
# HeLa = assay: cells; details: Homo sapiens; for GI50 / IC50 / IC (total growth inhibition): MTT; for IC50: read-out: IC50; for IC (total growth inhibition): read-out: TGI; for LC50 (concentration causing 50% net cell loss): read-out: LC50
# Method: as §1, §3, §4
# Hep3B = assay: cells; details: Homo sapiens; for GI50 / IC50 / IC (total growth inhibition): MTT; for IC50: read-out: IC50; for IC (total growth inhibition): read-out: TGI; for LC50 (concentration causing 50% net cell loss relative to time zero): read-out: LC50
# Method: as §1, §3, §4
# C6 (Rat brain glioma) = assay: cells; details: Rattus norvegicus; for LC50 (concentration giving 50% net cell loss relative to time zero): read-out: LC50; for GI50 / IC50 / IC (total growth inhibition): C6, MTT; for IC50: read-out: IC50; for IC (total growth inhibition): read-out: TGI
# Method: as §1, §3, §4
# A549 = assay: cells; details: Homo sapiens; for LC50 (concentration causing 50% net cell loss): A549, read-out: LC50; for GI50 / IC50 / IC (total growth inhibition): A549, MTT; for IC50: read-out: IC50; for IC (total growth inhibition): read-out: TGI
# Method: as §1, §3, §4
# MCF7 = assay: cells; details: Homo sapiens; for LC50 (concentration causing 50% net cell loss relative to time zero): MCF7, read-out: LC50; for GI50 / IC50 / IC (total growth inhibition): MCF7, MTT; for IC50: read-out: IC50; for IC (total growth inhibition): read-out: TGI
# Method: as §1, §3, §4
# [7] = Staphylococcus aureus, 24 h, read-out: MIC
# [8] = Streptococcus mutans, ATCC35668, 24 h, read-out: MIC
structure (smiles),measurement,setting,value
"Cc1ccccc1-c1cc(-c2cccnc2)nc(N[C@@H]2O[C@H](CO)[C@@H](O)[C@H](O)[C@H]2O)n1 [Compound 2, N-[4-(2-methylphenyl)-6-pyridin-3-ylpyrimidin-2-yl]-β-D-glucopyranosylamine]","cytotoxicity at 24 h, 25 μg/mL",[1],30.8%
same,"cytotoxicity at 24 h, 50 μg/mL",[1],49.8%
same,"cytotoxicity at 24 h, 75 μg/mL",[1],72.7%
same,"cytotoxicity at 24 h, 100 μg/mL",[1],99.8%
same,MIC,[2],125 µg/mL
same,MIC,[2]; [7],62.5 to 125 µg/mL
same,MIC,E. faecalis ATCC 29212,> 1000 µg/mL
same,MIC,S. mutans ATCC 35668; [8],1000 µg/mL
same,MIC,[3],125 µg/mL
same,MIC,[4],> 1000 µg/mL
same,MIC,E. coli ATCC 25922,> 1000 µg/mL
same,MIC,[5],> 1000 µg/mL
same,MIC,[6],250 µg/mL
same,MIC,S. gordonii NCTC 7870,500 µg/mL
same,MIC,E. coli ESBL ATCC 35218,> 1000 µg/mL
same,LC50 (concentration giving 50% net cell loss relative to time zero),HT29,> 500 µg/mL
same,GI50,HT29,2.46 µg/mL
same,IC50,HT29,453 µg/mL
same,IC (total growth inhibition),HT29,> 500 µg/mL
same,GI50,HeLa,> 500 µg/mL
same,IC50,HeLa,> 500 µg/mL
same,IC (total growth inhibition),HeLa,> 500 µg/mL
same,LC50 (concentration causing 50% net cell loss),HeLa,> 500 µg/mL
same,GI50,Hep3B,3.85 µg/mL
same,IC50,Hep3B,> 500 µg/mL
same,IC (total growth inhibition),Hep3B,> 500 µg/mL
same,LC50 (concentration causing 50% net cell loss relative to time zero),Hep3B,> 500 µg/mL
same,LC50 (concentration giving 50% net cell loss relative to time zero),C6 (Rat brain glioma),217 µg/mL
same,GI50,C6 (Rat brain glioma),9.17 µg/mL
same,IC50,C6 (Rat brain glioma),49.7 µg/mL
same,IC (total growth inhibition),C6 (Rat brain glioma),31.6 µg/mL
same,LC50 (concentration causing 50% net cell loss),A549,> 500 µg/mL
same,GI50,A549,11.6 µg/mL
same,IC50,A549,> 500 µg/mL
same,IC (total growth inhibition),A549,> 500 µg/mL
same,LC50 (concentration causing 50% net cell loss relative to time zero),MCF7,> 500 µg/mL
same,GI50,MCF7,1.69 µg/mL
same,IC50,MCF7,> 500 µg/mL
same,IC (total growth inhibition),MCF7,> 500 µg/mL
"CC(=O)OC[C@H]1O[C@@H](Nc2nc(-c3ccncc3)cc(-c3ccc(C)cc3)n2)[C@H](OC(C)=O)[C@@H](OC(C)=O)[C@@H]1OC(C)=O [Compound 18, 2,3,4,6-tetra-O-acetyl-N-[4-(4-methylphenyl)-6-pyridin-4-ylpyrimidin-2-yl]-β-D-glucopyranosylamine]","cytotoxicity at 24 h, 25 μg/mL",[1],27.2%
same,"cytotoxicity at 24 h, 50 μg/mL",[1],44.1%
same,"cytotoxicity at 24 h, 75 μg/mL",[1],75.2%
same,"cytotoxicity at 24 h, 100 μg/mL",[1],86.5%
same,MIC,[2]; [7],1000 µg/mL
same,MIC,S. mutans ATCC 35668,125 µg/mL
same,MIC,S. mutans ATCC 35668; [8],62.5 to 125 µg/mL
same,MIC,[3],500 µg/mL
same,MIC,[4],> 1000 µg/mL
same,MIC,E. coli ATCC 25922,> 1000 µg/mL
same,MIC,[5],1000 µg/mL
same,MIC,[6],> 1000 µg/mL
same,MIC,S. gordonii NCTC 7870,> 1000 µg/mL
same,MIC,E. coli ESBL ATCC 35218,> 1000 µg/mL
same,LC50 (concentration giving 50% net cell loss relative to time zero),HT29,> 500 µg/mL
same,GI50,HT29,7.77 µg/mL
same,IC50,HT29,> 500 µg/mL
same,IC (total growth inhibition),HT29,> 500 µg/mL
same,GI50,HeLa,1.03 µg/mL
same,IC50,HeLa,2.29 µg/mL
same,IC (total growth inhibition),HeLa,1.29 µg/mL
same,LC50 (concentration causing 50% net cell loss),HeLa,7.4 µg/mL
same,GI50,Hep3B,6.15 µg/mL
same,IC50,Hep3B,> 500 µg/mL
same,IC (total growth inhibition),Hep3B,> 500 µg/mL
same,LC50 (concentration causing 50% net cell loss relative to time zero),Hep3B,> 500 µg/mL
same,LC50 (concentration giving 50% net cell loss relative to time zero),C6 (Rat brain glioma),29.8 µg/mL
same,GI50,C6 (Rat brain glioma),2.23 µg/mL
same,IC50,C6 (Rat brain glioma),30.1 µg/mL
same,IC (total growth inhibition),C6 (Rat brain glioma),5.21 µg/mL
same,LC50 (concentration causing 50% net cell loss),A549,> 500 µg/mL
same,GI50,A549,15.5 µg/mL
same,IC50,A549,> 500 µg/mL
same,IC (total growth inhibition),A549,> 500 µg/mL
same,LC50 (concentration causing 50% net cell loss relative to time zero),MCF7,> 500 µg/mL
same,GI50,MCF7,1.79 µg/mL
same,IC50,MCF7,> 500 µg/mL
same,IC (total growth inhibition),MCF7,> 500 µg/mL
